Laboratory results published in patent US9717751B2, “Chitin or derivatives thereof for the prevention and/or treatment of parasitoses” (LESAFFRE ET COMPAGNIE, priority 2012, dated 2017).
“And” between values parts separate entries of the source, which are not always exact repeats. Equal entries are not always repeated. Structures can show the parent of a compound that is named as a salt.

Tests used:
C. parvum [1] = assay: Direct test: compound added to C. parvum-infected Caco-2 cells; assay type: cell-based, Cryptosporidium parvum; settings: direct addition, 500 μg/ml; for viability at 500 µg/mL: Cryptosporidium parvum, T+ = 100, read-out: % of viable sporozoites; for Number of sporozoites: single tests; for Number of sporozoites, Mean: triplicate mean
Protocol: (§1) Two cell models were tested: HCT-8 cells (human ileocecal adenocarcinoma cells) and Caco-2 cells (human colonic adenocarcinoma cells).
(§2) The Iowa Cryptosporidium parvum strain (Waterborne inc., New Orleans, La., USA) is used for the tests.
(§3) The infection is carried out on cells at 70%-80% confluence, cultured in a monolayer on collagen-coated coverslips in 24-well plates.
(§4) The supernatant of the cells in a monolayer is replaced with 3 ml of culture medium to which 1×10^4 C. parvum oocysts are added. After incubation for 3 hours in a humid incubator at 37° C. and 5% CO2, the supernatant is replaced with 3 ml of culture medium and incubated for 48 h in a humid incubator at 37° C., 5% CO2 and 80% humidity.
(§5) The culture medium of the infected cells is replaced with 1 ml of culture medium to which the test compound is then added, at a final concentration of 500 μg/ml.
(§6) The plates are incubated for 48 h in a humid incubator at 37° C. and 5% CO2.
(§7) The intracellular oocysts are stained after fixing the cells with methanol. The labeling is carried out using a specific conjugated polyclonal antibody (Sporo-Glo 20×Waterborne inc., New Orleans, La., USA). The coverslips are then mounted on slides. The intracellular oocysts are counted with a fluorescence microscope.
(§8) On each slide, 6×50 fields randomly chosen over the entire surface area of the slide are counted.
(§9) The results obtained are a triplicate mean. The data are analyzed by ANOVA. A p-value of less than or equal to 0.05 is considered to be significant.
(§10) The various compounds are tested at a dose of 500 μg/ml.

C. parvum [2] = assay: Preincubation test: C. parvum oocysts preincubated 24 h with compound, then infection of HCT-8 cells; assay type: cell-based, Cryptosporidium parvum; settings: preincubation 24 h, 500 μg/ml; for viability at 500 µg/mL: Cryptosporidium parvum, T+ = 100, read-out: % of viable sporozoites; for Number of sporozoites: single tests; for Number of sporozoites, Mean: triplicate mean
Protocol: (§11) Two cell models were tested: HCT-8 cells (human ileocecal adenocarcinoma cells) and Caco-2 cells (human colonic adenocarcinoma cells). The Iowa Cryptosporidium parvum strain (Waterborne inc., New Orleans, La., USA) is used for the tests. The infection is carried out on cells at 70%-80% confluence, cultured in a monolayer on collagen-coated coverslips in 24-well plates. The supernatant of the cells in a monolayer is replaced with 3 ml of culture medium to which 1×10^4 C. parvum oocysts are added. After incubation for 3 hours in a humid incubator at 37° C. and 5% CO2, the supernatant is replaced with 3 ml of culture medium and incubated for 48 h in a humid incubator at 37° C., 5% CO2 and 80% humidity. In each well of a plate, 1×10^4 oocysts are brought into contact with 500 μg/ml of paromomycin, chitosan or NAG. The plates are incubated for 24 h in a humid incubator at 37° C. and 5% CO2. The cells are then infected as indicated above. The intracellular oocysts are stained after fixing the cells with methanol. The labeling is carried out using a specific conjugated polyclonal antibody (Sporo-Glo 20×Waterborne inc., New Orleans, La., USA). The coverslips are then mounted on slides. The intracellular oocysts are counted with a fluorescence microscope. On each slide, 6×50 fields randomly chosen over the entire surface area of the slide are counted. The results obtained are a triplicate mean. The data are analyzed by ANOVA. A p-value of less than or equal to 0.05 is considered to be significant. The tested compounds are incubated for 24 h with C. parvum oocysts before the in vitro infection at a dose of 500 μg/ml.

CMT-93 cells = assay: Chemokine production by epithelial cells (quantitative RT-PCR); assay type: cell-based, murine; settings: 24 h incubation
Protocol: The tests are carried out on cells of the CMT-93 murine line (mycoplasma-free) cultured in complete medium comprising 10% of FCS (Fetal Calf Serum) or on dendritic cells derived from bone marrow (immature) in the presence of GM-CSF (Granulocyte Macrophage Colony Stimulating Factor) added regularly to the culture for 9 days. Chemokine production by the epithelium or other intestinal cells is important for the recruitment of the inflammatory cells required for protection against cryptosporidiosis in newborns. Chemokine production by epithelial cells is measured by quantitative RT-PCR (quantification by incorporation of Sybr green) after incubation of CMT-93 cells with the various compounds for 24 h.

C. parvum [3] = assay: Preincubation test: C. parvum oocysts preincubated 24 h with compound, then infection of Caco-2 cells; assay type: cell-based, Cryptosporidium parvum; settings: preincubation 24 h, 500 μg/ml; for viability at 500 µg/mL: Cryptosporidium parvum, T+ = 100, read-out: % of viable sporozoites; for Number of sporozoites, Mean: triplicate mean
Protocol: as §11

C. parvum [4] = assay: Direct test: compound added to C. parvum-infected HCT-8 cells; assay type: cell-based, Cryptosporidium parvum; settings: direct addition, 500 μg/ml; for viability at 500 µg/mL: Cryptosporidium parvum, T+ = 100, read-out: % of viable sporozoites; for Number of sporozoites: single tests; for Number of sporozoites, Mean: triplicate mean
Protocol: as §1, §2, §3, §4, §5, §6, §7, §8, §9, §10

C. parvum [5] = assay: Effect of the compounds on C. parvum development in CMT-93 murine cells; assay type: cell-based, Cryptosporidium parvum; settings: CMT-93 cells, 18 μg/ml
Protocol: The C. parvum oocysts used were isolated from feces (stools) of calves that had been experimentally infected (by INRA [French National Institute for Agricultural Research] of Tours).
The tests are carried out on cells of the CMT-93 murine line (mycoplasma-free) cultured in complete medium comprising 10% of FCS (Fetal Calf Serum).
Interferon-γ at 10 ng/ml is used as a positive control. This is because partial inhibition of C. parvum multiplication in enterocytes under the action of this cytokine has been described.
The cells of the CMT-93 line are seeded in a proportion of 3.6×10^5 cells per well.
The test compounds are added after 8 h.
After 24 h, the cells are lysed with trypsin and labeled with a fluorescent lectin (VVL-FITC), in order to be able to find the infected cells with a fluorescence microscope. The number of infected cells is found manually.

Compound | viability at 500 µg/mL (C. parvum [1]; 48 h) | reduction in parasite development (C. parvum [1]) | Number of sporozoites, Mean (C. parvum [1]; 48 h) | viability at 500 µg/mL (C. parvum [2]) | reduction of parasite development (C. parvum [2]) | Number of sporozoites, Mean (C. parvum [2]) | viability at 500 µg/mL (C. parvum [3]) | reduction of parasite development (C. parvum [3]) | Number of sporozoites, Mean (C. parvum [3]) | viability at 500 µg/mL (C. parvum [4]; 48 h) | effectiveness compared with paromomycin (C. parvum [4]) | reduction in parasite development (C. parvum [4]) | Number of sporozoites (C. parvum [4]; 48 h) | Number of sporozoites, Mean (C. parvum [4]; 48 h) | reduction of parasite multiplication compared with the nontreated control (C. parvum [5]) | further results
CC(=O)N[C@H]1C(O)O[C@H](CO)[C@@H](O)[C@@H]1O (stereo partly drawn) [NAG, N-acetylglucosamine] | 64.8% | 35.2% | 571 | 0.99% | 99.0% | 11 | 2.61% | 97.4% | 30 | 11.6% | more effective than paromomycin | 88.4% | 172 and 131 and 99 | 134 | 43% | Number of sporozoites (C. parvum [1]; 48 h): 656 and 485 and 337; Number of sporozoites (C. parvum [2]): 12 and 14 and 7; production of chemokines CXCL10 and CCL20, ranking of the products (CMT-93 cells): most effective; Number of sporozoites (C. parvum [3]; single tests): 21 and 39 and 31
NC[C@@H]1O[C@H](O[C@H]2[C@@H](O)[C@H](O[C@@H]3[C@@H](O)[C@H](N)C[C@H](N)[C@H]3O[C@H]3O[C@H](CO)[C@@H](O)[C@H](O)[C@H]3N)O[C@@H]2CO)[C@H](N)[C@@H](O)[C@@H]1O [Paromomycin, paromomycin sulfate, reference compound] | 66.4% | 33.6% | 592 | 0.53% | 99.5% | 6 | 2.87% | 97.1% | 33 | 55.4% |  | 44.6% | 208 and 178 and 187 | 191 |  | 
chitosan hydrochloride |  | 68% | 282 |  | 95.7% | 47 |  | 97.6% | 28 |  | more effective than paromomycin | 93.6% |  | 73 | 31% | effectiveness compared with paromomycin (C. parvum [1]): more effective; % of viable sporozoites (C. parvum [1]; 48 h, T+ = 100): 32.0%; Number of sporozoites (C. parvum [1]; 48 h, hydrochloride): 372 and 199 and 276; % of viable sporozoites (C. parvum [2]; T+ = 100): 4.3%; Number of sporozoites (C. parvum [2]; hydrochloride): 47 and 52 and 37; % of viable sporozoites (C. parvum [3]; T+ = 100): 2.44%; % of viable sporozoites (C. parvum [4]; 48 h, T+ = 100): 6.4%; Number of sporozoites (C. parvum [4]; 48 h, hydrochloride): 90 and 66 and 64
poly-(N-deacetyl-D-glucosamine) [insoluble chitosan] |  |  |  |  |  |  |  |  |  |  |  |  |  |  |  | infected cells (C. parvum [5]; nontreated control 50% of infected cells): approximately 40%
